In patent EP3375430A1, “FRAGRANCE COMPOSITIONS” (Takasago International Corporation, priority 2017, dated 2018):

Assay: Amount of fragrance ingredients retained on paper blotter after evaporation (ethanol extraction, GC-MS)
Format: physicochemical
Method: A fragrance (hereafter fragrance TAK, the formulation of which is shown in table 1) was formulated in a typical Eau de Toilette (EdT1) or in fragrance compositions according to the invention (compositions C1 to C4), as shown in table 2. The amount of individual fragrance ingredients retained on paper substrate (blotter) after set time periods was assessed by the following method.
100µL samples of either EdT1 or compositions C1 to C4 were applied to 4.5cm long standard paper blotters with a microsyringe. Three replicate blotters were prepared for each extraction time. After the appropriate evaporation time each of the 3 blotters was transferred to a 30mL glass bottle. 3mL of ethanol and 50µL of a 1% solution of methyl decanoate in ethanol as an internal standard were added. The bottle was sealed and placed on a roller bed to extract the blotter for 1 hour. A sample of the extracting solution was transferred to a vial which was sealed and analysed by gas chromatography (GC 6890) with a Mass Spectrometer detector (MS 5973) using the method described below. The results of the three replicate measurements were averaged. At exact times the same extraction was repeated on the remaining blotters which were stored on a warm surface at 32°C open to the air to allow evaporation. The gas chromatography conditions were as given below.
• Initial Temp: 50°C • Initial Time: 2 min • Rate: 10°C /min • Final Temp: 280°C • Final Time: 5 min • Run Time: 30 min
• Column: HP-5MS 30m * 0.25mm * 0.25µm • Gas: Helium • Constant Pressure 18.55 psi
• Split mode Ratio 40:1 • Inlet Temp: 250°C
• MS 5973 • Mass range: 35 to 350 • Threshold: 100 • Mass Quad: 150°C • Mass Source: 230°C
To simplify the results the average amount of each fragrance ingredient from the 3 samples measured at time zero was set at 100% and all other measurements were then related to that value so tables 3 to 6 show decreasing amounts of fragrance ingredients as a percentage of the initial amount.
The method of example 1 was repeated using a commercial fragrance (hereafter fragrance COM1, the formulation of which is given in table 7) formulated in a typical Eau de Toilette (EdT2) or in fragrance compositions according to the invention (compositions C5 and C6), as shown in table 8.

O=C1CCCCCCCCCCCC(=O)OCCO1 [Ethylene Brassylate]
amount of fragrance ingredient retained on blotter (percentage of the initial amount) (Table 3, fragrance TAK in C1, 15 min, 32°C): 81% | amount of fragrance ingredient retained on blotter (percentage of the initial amount) (Table 3, fragrance TAK in C1, 60 min, 32°C): 79% | amount of fragrance ingredient retained on blotter (percentage of the initial amount) (Table 3, fragrance TAK in C1, 120 min, 32°C): 81% | amount of fragrance ingredient retained on blotter (percentage of the initial amount) (Table 3, fragrance TAK in C1, 240 min, 32°C): 86% | amount of fragrance ingredient retained on blotter (percentage of the initial amount) (Table 3, fragrance TAK in C1, 480 min, 32°C): 79% | amount of fragrance ingredient retained on blotter (percentage of the initial amount) (Table 3, fragrance TAK in EdT1, 15 min, 32°C): 88% | amount of fragrance ingredient retained on blotter (percentage of the initial amount) (Table 3, fragrance TAK in EdT1, 60 min, 32°C): 85% | amount of fragrance ingredient retained on blotter (percentage of the initial amount) (Table 3, fragrance TAK in EdT1, 120 min, 32°C): 90% | amount of fragrance ingredient retained on blotter (percentage of the initial amount) (Table 3, fragrance TAK in EdT1, 240 min, 32°C): 98% | amount of fragrance ingredient retained on blotter (percentage of the initial amount) (Table 3, fragrance TAK in EdT1, 480 min, 32°C): 100% | amount of fragrance ingredient retained on blotter (percentage of the initial amount) (Table 3, fragrance TAK in EdT1 or C1, T0, set at 100% (normalisation)): 100% | amount of fragrance ingredient retained on blotter (percentage of the initial amount) (Table 4, fragrance TAK in C2, 15 min, 32°C): 97% | amount of fragrance ingredient retained on blotter (percentage of the initial amount) (Table 4, fragrance TAK in C2, 480 min, 32°C): 77% | amount of fragrance ingredient retained on blotter (percentage of the initial amount) (Table 4, fragrance TAK in EdT1, 15 min, 32°C): 87% | amount of fragrance ingredient retained on blotter (percentage of the initial amount) (Table 4, fragrance TAK in EdT1, 480 min, 32°C): 73% | amount of fragrance ingredient retained on blotter (percentage of the initial amount) (Table 4, fragrance TAK in EdT1 or C2, T0, set at 100% (normalisation)): 100% | amount of fragrance ingredient retained on blotter (percentage of the initial amount) (Table 5, fragrance TAK in C3, 15 min, 32°C): 80% | amount of fragrance ingredient retained on blotter (percentage of the initial amount) (Table 5, fragrance TAK in C3, 60 min, 32°C): 93% | amount of fragrance ingredient retained on blotter (percentage of the initial amount) (Table 5, fragrance TAK in C3, 120 min, 32°C): 93% | amount of fragrance ingredient retained on blotter (percentage of the initial amount) (Table 5, fragrance TAK in C3, 240 min, 32°C): 100% | amount of fragrance ingredient retained on blotter (percentage of the initial amount) (Table 5, fragrance TAK in C3, 480 min, 32°C): 82% | amount of fragrance ingredient retained on blotter (percentage of the initial amount) (Table 5, fragrance TAK in C3, 1440 min, 32°C): 96% | amount of fragrance ingredient retained on blotter (percentage of the initial amount) (Table 5, fragrance TAK in EdT1, 15 min, 32°C): 88% | amount of fragrance ingredient retained on blotter (percentage of the initial amount) (Table 5, fragrance TAK in EdT1, 60 min, 32°C): 85% | amount of fragrance ingredient retained on blotter (percentage of the initial amount) (Table 5, fragrance TAK in EdT1, 120 min, 32°C): 90% | amount of fragrance ingredient retained on blotter (percentage of the initial amount) (Table 5, fragrance TAK in EdT1, 240 min, 32°C): 98% | amount of fragrance ingredient retained on blotter (percentage of the initial amount) (Table 5, fragrance TAK in EdT1, 480 min, 32°C): 100% | amount of fragrance ingredient retained on blotter (percentage of the initial amount) (Table 5, fragrance TAK in EdT1, 1440 min, 32°C): 85% | amount of fragrance ingredient retained on blotter (percentage of the initial amount) (Table 5, fragrance TAK in EdT1 or C3, T0, set at 100% (normalisation)): 100% | amount of fragrance ingredient retained on blotter (percentage of the initial amount) (Table 6, fragrance TAK in C4, 15 min, 32°C): 100% | amount of fragrance ingredient retained on blotter (percentage of the initial amount) (Table 6, fragrance TAK in C4, 60 min, 32°C): 93% | amount of fragrance ingredient retained on blotter (percentage of the initial amount) (Table 6, fragrance TAK in C4, 120 min, 32°C): 96% | amount of fragrance ingredient retained on blotter (percentage of the initial amount) (Table 6, fragrance TAK in C4, 240 min, 32°C): 100% | amount of fragrance ingredient retained on blotter (percentage of the initial amount) (Table 6, fragrance TAK in C4, 480 min, 32°C): 100% | amount of fragrance ingredient retained on blotter (percentage of the initial amount) (Table 6, fragrance TAK in EdT1, 15 min, 32°C): 88% | amount of fragrance ingredient retained on blotter (percentage of the initial amount) (Table 6, fragrance TAK in EdT1, 60 min, 32°C): 85% | amount of fragrance ingredient retained on blotter (percentage of the initial amount) (Table 6, fragrance TAK in EdT1, 120 min, 32°C): 90% | amount of fragrance ingredient retained on blotter (percentage of the initial amount) (Table 6, fragrance TAK in EdT1, 240 min, 32°C): 98% | amount of fragrance ingredient retained on blotter (percentage of the initial amount) (Table 6, fragrance TAK in EdT1, 480 min, 32°C): 100% | amount of fragrance ingredient retained on blotter (percentage of the initial amount) (Table 6, fragrance TAK in EdT1 or C4, T0, set at 100% (normalisation)): 100%

Methyl ionone gamma
amount of fragrance ingredient retained on blotter (percentage of the initial amount) (Table 9, fragrance COM1 in C5, T0 + 15 min): 84.0% | amount of fragrance ingredient retained on blotter (percentage of the initial amount) (Table 9, fragrance COM1 in C5, T0 + 480 min): 32.8% | amount of fragrance ingredient retained on blotter (percentage of the initial amount) (Table 9, fragrance COM1 in C5, T0 +1440 min): 5.68% | amount of fragrance ingredient retained on blotter (percentage of the initial amount) (Table 9, fragrance COM1 in C6, T0 + 15 min): 74.2% | amount of fragrance ingredient retained on blotter (percentage of the initial amount) (Table 9, fragrance COM1 in C6, T0 + 480 min): 23.3% | amount of fragrance ingredient retained on blotter (percentage of the initial amount) (Table 9, fragrance COM1 in C6, T0 +1440 min): 5.2% | amount of fragrance ingredient retained on blotter (percentage of the initial amount) (Table 9, fragrance COM1 in EdT2, C5 or C6, T0, set at 100% (normalisation)): 100% | amount of fragrance ingredient retained on blotter (percentage of the initial amount) (Table 9, fragrance COM1 in EdT2, T0 + 15 min): 79.2% | amount of fragrance ingredient retained on blotter (percentage of the initial amount) (Table 9, fragrance COM1 in EdT2, T0 + 480 min): 16.4% | amount of fragrance ingredient retained on blotter (percentage of the initial amount) (Table 9, fragrance COM1 in EdT2, T0 +1440 min): 3.77%
